According to publication PMC11643962, “Exploring 4,7-Disubstituted Pyrimido[4,5-d]pyrimidines as Antiviral and Anticancer Agents” (Molecules, 2024):

Columns and labels:
HCoV-229E = test: Antiviral CPE reduction assay, HCoV-229E in HEL299 cells; assay type: cell-based, human coronavirus 229E; conditions: Human coronavirus 229E, HEL 299, MTS, mean ± SD of two or three independent experiments
HCoV-OC43 = test: Antiviral CPE reduction assay, HCoV-OC43 in HEL299 cells; assay type: cell-based, human coronavirus OC43; conditions: Betacoronavirus 1, OC43, HEL 299, MTS, mean ± SD of two or three independent experiments
HCoV-NL63 = test: Antiviral CPE reduction assay, HCoV-NL63 in Hep3B cells; assay type: cell-based, human coronavirus NL63; conditions: Human coronavirus NL63, MTS, mean ± SD of two or three independent experiments
[1] = system: influenza A/H1N1 (A/Ned/378/05); test: Antiviral CPE reduction assay, influenza A/H1N1 in MDCK cells; assay type: cell-based, influenza A virus; conditions: Influenza A virus, H1N1; MDCK cells; CPE reduction, MTS; mean ± SD of two or three independent experiments; read-out: Antiviral Activity (EC50) Influenza H1N1
[2] = system: influenza A/H3N2 (A/HK/7/87); test: Antiviral CPE reduction assay, influenza A/H3N2 in MDCK cells; assay type: cell-based, influenza A virus; conditions: Influenza A virus, H3N2; MDCK cells; CPE reduction, MTS; mean ± SD of two or three independent experiments; read-out: Antiviral Activity (EC50) Influenza H3N2
[3] = system: influenza B (B/Ned/537/05); test: Antiviral CPE reduction assay, influenza B in MDCK cells; assay type: cell-based, influenza B virus; conditions: Influenza B virus, MDCK, read-out: Antiviral Activity (EC50) Influenza B
[4] = system: respiratory syncytial virus A (RSV A Long); test: Antiviral CPE reduction assay, RSV A Long in Hep2 cells; assay type: cell-based; conditions: human respiratory syncytial virus, HEp-2; Hep2 cells; CPE reduction, MTS; mean ± SD of two or three independent experiments; read-out: Antiviral Activity (EC50) RSV A Long
[5] = system: herpes simplex virus-1 (HSV-1 KOS); test: Antiviral CPE reduction assay, HSV-1 KOS in HEL299 cells; assay type: cell-based; conditions: Human alphaherpesvirus 1, HEL 299, MTS, mean ± SD, no unit printed on the supplement page (Table 2 of the same screen is in µM)
[6] = system: yellow fever virus (YFV 17D); test: microbe, parasite or virus in culture; assay type: cell-based; conditions: Yellow fever virus, Vero C1008, read-out: Antiviral activity (EC50) YFV 17D
Zika virus (ZikV mr766) = test: Antiviral CPE reduction assay, Zika virus mr766 in VeroE6 cells; assay type: cell-based; conditions: Zika virus, Vero C1008, MTS, mean ± SD, no unit printed on the supplement page (Table 2 of the same screen is in µM)
in vitro [7] = conditions: human
in vitro [8] = conditions: human; remark: listed apart in the source
in vitro [9] = conditions: dog
in vitro [10] = conditions: human; remark: listed apart in the source
in vitro [11] = conditions: African green monkey
[12] = system: HL-60 (acute myeloid leukemia); test: MTS proliferation assay, HL-60; conditions: Homo sapiens, HL-60, 72 h, read-out: Anti-Proliferative Activity (IC50) HL-60
[13] = system: K-562 (chronic myeloid leukemia); test: MTS proliferation assay, K-562; conditions: Homo sapiens, K562, 72 h, read-out: Anti-Proliferative Activity (IC50) K-562
[14] = system: Z-138 (non-Hodgkin lymphoma); test: MTS proliferation assay, Z-138; conditions: Homo sapiens, Z-138, 72 h, read-out: Anti-Proliferative Activity (IC50) Z-138
LN-229 (glioblastoma) = test: MTS proliferation assay, LN-229; conditions: Homo sapiens, LN-229, 72 h, read-out: Anti-Proliferative Activity (IC50) LN-229
[15] = system: DND-41 (acute lymphoblastic leukemia); test: MTS proliferation assay, DND-41; conditions: Homo sapiens, DND41, 72 h, read-out: Anti-Proliferative Activity (IC50) DND-41
[16] = system: Capan-1 (pancreatic adenocarcinoma); test: MTS proliferation assay, Capan-1; conditions: Homo sapiens, CAPAN-1, 72 h, read-out: Anti-Proliferative Activity (IC50) Capan-1
[17] = system: HCT-116 (colorectal carcinoma); test: MTS proliferation assay, HCT-116; conditions: Homo sapiens, HCT-116, 72 h, read-out: Anti-Proliferative Activity (IC50) HCT-116
[18] = system: NCI-H460 (lung carcinoma); test: MTS proliferation assay, NCI-H460; conditions: Homo sapiens, NCI-H460, 72 h, read-out: Anti-Proliferative Activity (IC50) NCI-H460

Row | SMILES | EC50 (HCoV-229E) | EC50 (HCoV-OC43) | EC50 (HCoV-NL63) | EC50 [1] | EC50 [2] | EC50 [3] | EC50 [4] | EC50 [5] | EC50 [6] | EC50 (Zika virus (ZikV mr766)) | melting point | CC50 (in vitro [7]) | CC50 (in vitro [8]) | CC50 (in vitro [9]) | CC50 (in vitro [10]) | CC50 (in vitro [11]) | IC50 [12] | IC50 [13] | IC50 [14] | IC50 (LN-229 (glioblastoma)) | also measured
1 | c1cc2c(c(Nc3ncnc4nc(NC5CC5)ncc34)c1)CCC2 [Compound 7g, N^2-cyclopropyl-N^5-(2,3-dihydro-1H-inden-4-yl)pyrimido[4,5-d]pyrimidine-2,5-diamine] | ≥ 30.5 µM | > 50 µM | > 50 µM | > 50 µM | > 50 µM | > 50 µM | > 50 µM | > 50 µM | > 50 µM | > 50 µM | 290 °C | > 50 µM | > 50 µM | > 50 µM | > 50 µM | > 50 µM | > 100 µM | > 100 µM | > 100 µM | > 100 µM | IC50 [15]: > 100 µM; IC50 [16]: > 100 µM; IC50 [17]: > 100 µM; IC50 [18]: > 100 µM
2 | CN(C)CCNc1ncc2c(Nc3cccc4c3CCCC4)ncnc2n1 [Compound 7a, N^2-[2-(Dimethylamino)ethyl]-N^5-(5,6,7,8-tetrahydronaphthalen-1-yl)pyrimido[4,5-d]pyrimidine-2,5-diamine] | 15.8 ± 0.9 µM | 27.7 ± 0.6 µM | > 50 µM | > 50 µM | > 50 µM | > 50 µM | > 50 µM | > 50 µM | > 50 µM | > 50 µM | 176.3 °C | > 50 µM | > 50 µM | > 50 µM | > 50 µM | > 50 µM | > 100 µM | 87 ± 1.3 µM | 58.9 ± 1.8 µM | > 100 µM | IC50 [15]: 57.9 ± 2 µM; IC50 [16]: > 100 µM; IC50 [17]: > 100 µM; IC50 [18]: > 100 µM
3 | C#Cc1cccc(Nc2ncnc3nc(NC4CC4)ncc23)c1 [Compound 7j, N^2-cyclopropyl-N^5-(3-ethynylphenyl)pyrimido[4,5-d]pyrimidine-2,5-diamine] | > 50 µM | > 50 µM | > 50 µM | > 50 µM | > 50 µM | > 50 µM | > 50 µM | > 50 µM | > 50 µM | > 50 µM | 296 °C | > 50 µM | > 50 µM | > 50 µM | > 50 µM | > 50 µM | > 100 µM | > 100 µM | > 100 µM | > 100 µM | IC50 [15]: > 100 µM; IC50 [16]: > 100 µM; IC50 [17]: > 100 µM; IC50 [18]: > 100 µM
4 | CCN(CC)CCNc1ncc2c(Nc3cccnc3)ncnc2n1 [Compound 7l, N^2-[2-(diethylamino)ethyl]-N^5-(pyridin-3-yl)pyrimido[4,5-d]pyrimidine-2,5-diamine] | > 50 µM | > 50 µM | > 50 µM | > 50 µM | > 50 µM | > 50 µM | > 50 µM | > 50 µM | > 50 µM | > 50 µM | 220 to 224 °C | > 50 µM | > 50 µM | > 50 µM | > 50 µM | > 50 µM | > 100 µM | > 100 µM | > 100 µM | > 100 µM | IC50 [15]: > 100 µM; IC50 [16]: > 100 µM; IC50 [17]: > 100 µM; IC50 [18]: > 100 µM
5 | CCN(CC)CCNc1ncc2c(Nc3cccc4c3CCCC4)ncnc2n1 [Compound 7b, N^2-[2-(Diethylamino)ethyl]-N^5-(5,6,7,8-tetrahydronaphthalen-1-yl)pyrimido[4,5-d]pyrimidine-2,5-diamine] | 11 ± 2.7 µM | 34.7 ± 16.7 µM | > 50 µM | > 50 µM | > 50 µM | > 50 µM | > 50 µM | > 50 µM | > 50 µM | > 50 µM | 181.3 °C | > 50 µM | > 50 µM | > 50 µM | > 50 µM | > 50 µM | > 100 µM | > 100 µM | 62.6 ± 0.8 µM | > 100 µM | IC50 [15]: 67.1 ± 4.7 µM; IC50 [16]: > 100 µM; IC50 [17]: > 100 µM; IC50 [18]: > 100 µM
6 | CCN(CC)CCNc1ncc2c(Nc3cccc4c3CCC4)ncnc2n1 [Compound 7f, N^5-(2,3-dihydro-1H-inden-4-yl)-N^2-[2-(diethylamino)ethyl]pyrimido[4,5-d]pyrimidine-2,5-diamine] | 3.9 ± 2.9 µM | 37.3 ± 15.1 µM | > 50 µM | > 50 µM | > 50 µM | > 50 µM | > 50 µM | > 50 µM | > 50 µM | > 50 µM | 172.9 °C | > 50 µM | > 50 µM | > 50 µM | > 50 µM | > 50 µM | > 100 µM | > 100 µM | > 100 µM | > 100 µM | IC50 [15]: > 100 µM; IC50 [16]: > 100 µM; IC50 [17]: > 100 µM; IC50 [18]: > 100 µM
